The supplement of paper PMC10307832

What was measured:
Assay in all cases: relative viability (nuclei count vs DMSO), 5 days (fraction); higher = more cells survive
[1] = compound: CC(C)=CC[C@@H](O)C1=CC(=O)c2c(O)ccc(O)c2C1=O [Shikonin] + COc1cc2c(Oc3ccc(NC(=O)C4(C(=O)Nc5ccc(F)cc5)CC4)cc3F)ccnc2cc1OCCCN1CCOCC1 [Foretinib] (partner 0.25 µM)
Procedure, shortened: (§1)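 Medians of duplicate plates are given as relative viability. That measure is the nuclei count in treated wells divided by the count in vehicle wells. Counts were taken on 4× images of lung cancer cell lines in 1536-well plates, 5 days after pin-tool dosing the day after seeding with one drug alone or a fixed anchor-drug dose plus five library-drug doses (not always all listed) in √10 steps.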

[2] = compound: CC(C)=CC[C@@H](O)C1=CC(=O)c2c(O)ccc(O)c2C1=O [Shikonin] + Nc1ncn([C@H]2C[C@H](O)[C@@H](CO)O2)c(=O)n1 [Decitabine] (partner 2 µM)
Procedure, shortened: as §1

[3] = compound: CC(C)=CC[C@@H](O)C1=CC(=O)c2c(O)ccc(O)c2C1=O [Shikonin] + O=C(CCCCCCC(=O)Nc1ccccc1)NO [Vorinostat] (partner 1 µM)
Procedure, shortened: as §1

[4] = compound: CC(C)N(CCCNC(=O)Nc1ccc(C(C)(C)C)cc1)C[C@H]1O[C@@H](n2ccc3c(N)ncnc32)[C@H](O)[C@@H]1O + CC1(C)CCC(c2ccc(Cl)cc2)=C(CN2CCN(c3ccc(C(=O)NS(=O)(=O)c4ccc(N[C@H](CCN5CCOCC5)CSc5ccccc5)c(S(=O)(=O)C(F)(F)F)c4)cc3)CC2)C1 [Navitoclax] (partner 0.5 µM)
Procedure, shortened: as §1

HOP-62
relative viability ([1]; first compound 0.01 µM): 1.28
relative viability ([1]; first compound 0.1 µM): 1.25
relative viability ([1]; first compound 0.3162 µM): 1.28
relative viability ([1]; first compound 1 µM): 1.28
relative viability ([2]; first compound 0.01 µM): 0.24
relative viability ([2]; first compound 0.1 µM): 0.222
relative viability ([2]; first compound 0.3162 µM): 0.205
relative viability ([2]; first compound 1 µM): 0.212
relative viability ([3]; first compound 0.01 µM): 0.663
relative viability ([3]; first compound 0.1 µM): 0.667
relative viability ([3]; first compound 0.3162 µM): 0.739
relative viability ([3]; first compound 1 µM): 0.558
relative viability ([4]; first compound 0.08 µM): 0.89
relative viability ([4]; first compound 0.253 µM): 1.07
relative viability ([4]; first compound 0.8 µM): 0.846
relative viability ([4]; first compound 2.53 µM): 0.929
relative viability ([4]; first compound 8 µM): 1.03

IA-LM
relative viability ([1]; first compound 0.01 µM): 1.14
relative viability ([1]; first compound 0.1 µM): 1.42
relative viability ([1]; first compound 0.3162 µM): 1.32
relative viability ([1]; first compound 1 µM): 1.15
relative viability ([3]; first compound 0.01 µM): 1.08
relative viability ([3]; first compound 0.1 µM): 0.512
relative viability ([3]; first compound 0.3162 µM): 1.07
relative viability ([3]; first compound 1 µM): 1
relative viability ([4]; first compound 0.08 µM): 0.693
relative viability ([4]; first compound 0.253 µM): 0.788
relative viability ([4]; first compound 0.8 µM): 0.951
relative viability ([4]; first compound 2.53 µM): 0.72
relative viability ([4]; first compound 8 µM): 0.586

LC-2-ad
relative viability ([1]; first compound 0.01 µM): 0.869
relative viability ([1]; first compound 0.1 µM): 0.989
relative viability ([1]; first compound 0.3162 µM): 1.04
relative viability ([1]; first compound 1 µM): 1.01
relative viability ([2]; first compound 0.01 µM): 0.75
relative viability ([2]; first compound 0.1 µM): 0.849
relative viability ([2]; first compound 0.3162 µM): 0.874
relative viability ([2]; first compound 1 µM): 0.89
relative viability ([3]; first compound 0.01 µM): 0.696
relative viability ([3]; first compound 0.1 µM): 0.759
relative viability ([3]; first compound 0.3162 µM): 0.739
relative viability ([3]; first compound 1 µM): 0.678
relative viability ([4]; first compound 0.08 µM): 0.612
relative viability ([4]; first compound 0.253 µM): 0.409
relative viability ([4]; first compound 0.8 µM): 0.435
relative viability ([4]; first compound 2.53 µM): 0.458
relative viability ([4]; first compound 8 µM): 0.462

LCLC-97TM1
relative viability ([1]; first compound 0.01 µM): 0.949
relative viability ([1]; first compound 0.1 µM): 1.02
relative viability ([1]; first compound 0.3162 µM): 0.912
relative viability ([1]; first compound 1 µM): 0.962
relative viability ([2]; first compound 0.01 µM): 0.257
relative viability ([2]; first compound 0.1 µM): 0.232
relative viability ([2]; first compound 0.3162 µM): 0.215
relative viability ([2]; first compound 1 µM): 0.242
relative viability ([3]; first compound 0.01 µM): 0.872
relative viability ([3]; first compound 0.1 µM): 0.764
relative viability ([3]; first compound 0.3162 µM): 1.08
relative viability ([3]; first compound 1 µM): 0.928
relative viability ([4]; first compound 0.08 µM): 0.407
relative viability ([4]; first compound 0.8 µM): 0.296
relative viability ([4]; first compound 2.53 µM): 0.273
relative viability ([4]; first compound 8 µM): 0.432

LCLC-103H
relative viability ([1]; first compound 0.01 µM): 0.875
relative viability ([1]; first compound 0.1 µM): 0.847
relative viability ([1]; first compound 0.3162 µM): 0.953
relative viability ([1]; first compound 1 µM): 0.942
relative viability ([2]; first compound 0.01 µM): 0.711
relative viability ([2]; first compound 0.1 µM): 0.727
relative viability ([2]; first compound 0.3162 µM): 0.74
relative viability ([2]; first compound 1 µM): 0.75
relative viability ([3]; first compound 0.01 µM): 0.791
relative viability ([3]; first compound 0.1 µM): 0.877
relative viability ([3]; first compound 0.3162 µM): 0.801
relative viability ([3]; first compound 1 µM): 0.889

LK-2
relative viability ([1]; first compound 0.01 µM): 1.15
relative viability ([1]; first compound 0.1 µM): 1.31
relative viability ([1]; first compound 0.3162 µM): 1.85
relative viability ([1]; first compound 1 µM): 1.16
relative viability ([2]; first compound 0.01 µM): 0.297
relative viability ([2]; first compound 0.1 µM): 0.272
relative viability ([2]; first compound 0.3162 µM): 0.289
relative viability ([2]; first compound 1 µM): 0.352
relative viability ([3]; first compound 0.01 µM): 0.279
relative viability ([3]; first compound 0.1 µM): 0.309
relative viability ([3]; first compound 0.3162 µM): 0.214
relative viability ([3]; first compound 1 µM): 0.316
relative viability ([4]; first compound 0.08 µM): 0.848
relative viability ([4]; first compound 0.253 µM): 0.775
relative viability ([4]; first compound 0.8 µM): 0.929
relative viability ([4]; first compound 2.53 µM): 0.768
relative viability ([4]; first compound 8 µM): 0.711

LOU-NH91
relative viability ([1]; first compound 0.01 µM): 0.955
relative viability ([1]; first compound 0.1 µM): 0.934
relative viability ([1]; first compound 0.3162 µM): 1.04
relative viability ([1]; first compound 1 µM): 0.9
relative viability ([2]; first compound 0.01 µM): 0.787
relative viability ([2]; first compound 0.1 µM): 0.879
relative viability ([2]; first compound 0.3162 µM): 0.856
relative viability ([2]; first compound 1 µM): 0.816
relative viability ([3]; first compound 0.01 µM): 0.921
relative viability ([3]; first compound 0.1 µM): 1.02
relative viability ([3]; first compound 0.3162 µM): 1.04
relative viability ([3]; first compound 1 µM): 0.957
relative viability ([4]; first compound 0.08 µM): 0.628
relative viability ([4]; first compound 0.253 µM): 0.581
relative viability ([4]; first compound 2.53 µM): 0.652
relative viability ([4]; first compound 8 µM): 0.606

LU99A
relative viability ([1]; first compound 0.01 µM): 0.854
relative viability ([1]; first compound 0.1 µM): 0.815
relative viability ([1]; first compound 0.3162 µM): 0.797
relative viability ([1]; first compound 1 µM): 0.744
relative viability ([2]; first compound 0.01 µM): 0.744
relative viability ([2]; first compound 0.1 µM): 1.05
relative viability ([2]; first compound 0.3162 µM): 0.978
relative viability ([2]; first compound 1 µM): 0.852
relative viability ([3]; first compound 0.01 µM): 0.459
relative viability ([3]; first compound 0.1 µM): 0.617
relative viability ([3]; first compound 0.3162 µM): 0.485
relative viability ([3]; first compound 1 µM): 0.494
relative viability ([4]; first compound 0.08 µM): 0.745
relative viability ([4]; first compound 0.253 µM): 0.717
relative viability ([4]; first compound 0.8 µM): 0.747
relative viability ([4]; first compound 2.53 µM): 1.01
relative viability ([4]; first compound 8 µM): 0.881

LXF-289
relative viability ([1]; first compound 0.01 µM): 0.987
relative viability ([1]; first compound 0.1 µM): 1.02
relative viability ([1]; first compound 0.3162 µM): 0.998
relative viability ([1]; first compound 1 µM): 0.972
relative viability ([2]; first compound 0.01 µM): 0.356
relative viability ([2]; first compound 0.1 µM): 0.342
relative viability ([2]; first compound 0.3162 µM): 0.453
relative viability ([2]; first compound 1 µM): 0.378
relative viability ([3]; first compound 0.01 µM): 0.787
relative viability ([3]; first compound 0.1 µM): 0.764
relative viability ([3]; first compound 0.3162 µM): 0.862
relative viability ([3]; first compound 1 µM): 0.79
relative viability ([4]; first compound 0.08 µM): 1
relative viability ([4]; first compound 0.253 µM): 0.969
relative viability ([4]; first compound 0.8 µM): 0.957
relative viability ([4]; first compound 2.53 µM): 0.988
relative viability ([4]; first compound 8 µM): 0.854

NCI-H23
relative viability ([1]; first compound 0.01 µM): 1.09
relative viability ([1]; first compound 0.1 µM): 1.07
relative viability ([1]; first compound 0.3162 µM): 1.03
relative viability ([1]; first compound 1 µM): 0.983
relative viability ([2]; first compound 0.01 µM): 0.335
relative viability ([2]; first compound 0.1 µM): 0.306
relative viability ([2]; first compound 0.3162 µM): 0.333
relative viability ([2]; first compound 1 µM): 0.277
relative viability ([3]; first compound 0.01 µM): 0.611
relative viability ([3]; first compound 0.1 µM): 0.75
relative viability ([3]; first compound 0.3162 µM): 0.59
relative viability ([3]; first compound 1 µM): 0.625
relative viability ([4]; first compound 0.08 µM): 0.771
relative viability ([4]; first compound 0.8 µM): 0.698
relative viability ([4]; first compound 2.53 µM): 0.822
relative viability ([4]; first compound 8 µM): 0.75
